Experiments:
[1] = molecular target: T1, second (BD2: amino acids E352-E168) bromodomain of BRD4 (Homo sapiens, UniProt O60885); experiment: TR-FRET bromodomain binding assay, BRD4 BD2; conditions: TR-FRET assay protocol (A-G, compound concentration range); Ki calculated from IC50, probe Kd and probe concentration; read-out: TR-FRET Binding Ki: BRD4 (BDII_E352-M457)
T1 construct: protocol
Outline: (§1)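 Compounds were serially diluted in DMSO, diluted into pH 6.0 phosphate buffer with NaCl, EDTA, Triton X-100 and DTT, then combined with His-tagged bromodomain and an Alexa647-labeled BET-inhibitor probe. TR-FRET was read, percent inhibition fitted to give IC50, and Ki derived using probe Kd.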

[2] = molecular target: T2, first (BD1: amino acids K57-E168) bromodomain of BRD4 (Homo sapiens, UniProt O60885); experiment: TR-FRET bromodomain binding assay, BRD4 BD1; conditions: TR-FRET assay protocol (A-G, compound concentration range); Ki calculated from IC50, probe Kd and probe concentration; read-out: TR-FRET Binding Ki: BRD4 (BDI_K57-E168)
T2 construct: His-tagged first (BD1: amino acids K57-E168)
Outline: as §1

Row | SMILES | Ki [1] | Ki [2]
1 | CNS(=O)(=O)c1ccc(-c2cc(=O)n(C)nc2-c2ccccc2Oc2ccccc2)cc1 [Example 159, N-methyl-4-[1-methyl-6-oxo-3-(2-phenoxyphenyl)-1,6-dihydropyridazin-4-yl]benzenesulfonamide] | 8420 nM | 5450 nM
2 | CCN(CC)C(=O)c1cccc(-c2cc(=O)n(C)nc2-c2ccccc2Oc2ccccc2)c1 [Example 160, N,N-diethyl-3-[1-methyl-6-oxo-3-(2-phenoxyphenyl)-1,6-dihydropyridazin-4-yl]benzamide] | 10200 nM | 8540 nM
3 | Cn1nc(-c2ccccc2Oc2ccccc2)c(-c2ccc(NCCN3CCOCC3)nc2)cc1=O [Example 162, 2-methyl-5-(6-{[2-(morpholin-4-yl)ethyl]amino}pyridin-3-yl)-6-(2-phenoxyphenyl)pyridazin-3(2H)-one] | 75.1 nM | 109 nM
4 | CN(C)CCCNC(=O)c1cccc(-c2cc(=O)n(C)nc2-c2ccccc2Oc2ccccc2)c1 [Example 163, N-[3-(dimethylamino)propyl]-3-[1-methyl-6-oxo-3-(2-phenoxyphenyl)-1,6-dihydropyridazin-4-yl]benzamide] | 366 nM | 1990 nM
5 | Cn1nc(-c2ccccc2Oc2ccccc2)c(-c2ccc(NCc3ccccc3)nc2)cc1=O [Example 164, 5-[6-(benzylamino)pyridin-3-yl]-2-methyl-6-(2-phenoxyphenyl)pyridazin-3(2H)-one] | 245 nM | 1510 nM
6 | Cn1nc(-c2ccccc2Oc2ccccc2)c(-c2ccc(C(=O)NCCC#N)cc2)cc1=O [Example 165, N-(2-cyanoethyl)-4-[1-methyl-6-oxo-3-(2-phenoxyphenyl)-1,6-dihydropyridazin-4-yl]benzamide] | 492 nM | 567 nM
7 | Cc1cc(-c2cc(=O)n(C)nc2-c2ccccc2Oc2ccccc2)cnc1N1CCOCC1 [Example 166, 2-methyl-5-[5-methyl-6-(morpholin-4-yl)pyridin-3-yl]-6-(2-phenoxyphenyl)pyridazin-3(2H)-one] | 1010 nM | 705 nM

Results, then the molecule that gave them:

Row | Ki [1] | Ki [2] | SMILES
8 | 7370 nM | 5430 nM | CCN(CC)C(=O)c1cc(F)cc(-c2cc(=O)n(C)nc2-c2ccccc2Oc2ccccc2)c1 [Example 167, N,N-diethyl-3-fluoro-5-[1-methyl-6-oxo-3-(2-phenoxyphenyl)-1,6-dihydropyridazin-4-yl]benzamide]
9 | 993 nM | 1070 nM | Cn1nc(-c2ccccc2Oc2ccccc2)c(-c2ccc(C(=O)NC(C)(C)C)cc2)cc1=O [Example 168, N-tert-butyl-4-[1-methyl-6-oxo-3-(2-phenoxyphenyl)-1,6-dihydropyridazin-4-yl]benzamide]
10 | 562 nM | 599 nM | Cn1nc(-c2ccccc2Oc2ccccc2)c(-c2ccc(C(=O)NC3CCCC3)cc2)cc1=O [Example 169, N-cyclopentyl-4-[1-methyl-6-oxo-3-(2-phenoxyphenyl)-1,6-dihydropyridazin-4-yl]benzamide]
11 | 1620 nM | 1670 nM | CC(C)CNC(=O)c1ccc(-c2cc(=O)n(C)nc2-c2ccccc2Oc2ccccc2)cc1 [Example 170, 4-[1-methyl-6-oxo-3-(2-phenoxyphenyl)-1,6-dihydropyridazin-4-yl]-N-(2-methylpropyl)benzamide]
12 | 215 nM | 253 nM | COCCCNC(=O)c1ccc(-c2cc(=O)n(C)nc2-c2ccccc2Oc2ccccc2)cc1 [Example 171, N-(3-methoxypropyl)-4-[1-methyl-6-oxo-3-(2-phenoxyphenyl)-1,6-dihydropyridazin-4-yl]benzamide]
13 | 593 nM | 572 nM | Cn1nc(-c2ccccc2Oc2ccccc2)c(-c2cnn(CCN3CCOCC3)c2)cc1=O [Example 172, 2-methyl-5-{1-[2-(morpholin-4-yl)ethyl]-1H-pyrazol-4-yl}-6-(2-phenoxyphenyl)pyridazin-3(2H)-one]
14 | 545 nM | 805 nM | COCCNC(=O)c1ccc(-c2cc(=O)n(C)nc2-c2ccccc2Oc2ccccc2)cc1 [Example 173, N-(2-methoxyethyl)-4-[1-methyl-6-oxo-3-(2-phenoxyphenyl)-1,6-dihydropyridazin-4-yl]benzamide]
